Measured values taken from patent US10144732B2 (BIOGEN MA INC., priority 2014, dated 2018).
Values joined by “and” are separate entries in the source; they are usually repeats but may differ in a detail not shown here. Identical values can stand only once.

The compounds below were run against T1, Human ATX protein (Homo sapiens, UniProt Q13822) (assay: ATX biochemical assay (FRET, FS-3 substrate)). Conditions: FRET assay, FS-3 2 μM, ATX 1.0 μg/mL, 30 minutes preincubation, 2 hours reaction at room temperature; read-out: IC50.
T1 construct: made in house
Text: ATX (Autotaxin) is a 125 KDa glycoprotein with lysophospholipase D (LPLD) activity that generates the bioactive lipid lysophosphatidic acid (LPA) from lysophosphatidylcholine (LPC). The ATX biochemical assay utilizes a FRET (fluorescence resonance energy transfer) technology platform. The fluorescence signal of FRET substrate FS-3 is quenched due to intra-molecular FRET of a fluorophore to a non-fluorescing quencher (Ferguson, C. G., et al., Org Lett. 2006 May 11; 8(10): 2023-2026, which is incorporated by reference in its entirety). ATX catalyzes the hydrolysis of the substrate which separates the dabsyl quencher from the fluorescein reporter, which becomes fluorescent. The reaction is monitored by a SpectraMax M5 (Molecular Devices, Sunnyvale, Calif.) with at excitation wavelength 485 nm and emission wavelength […].
Fatty acid free-BSA (Sigma A8806): 10 mg/mL in H2O, stored at 4° C.
2×ATX assay buffer: 100 mM Tris, 280 mM NaCl, 10 mM KCl, 2 mM CaCl2, 2 mM MgCl2, pH 7.4.
Human ATX protein: expressed and purified in house. Stored at −80° C.
Substrate FS-3 (Echelon, L-2000): 100 μg in 77.74 μL H2O (1 mM stock), stored at −20° C.
384-well flat bottom plates—Corning #3575.
Compound dilution—All compounds were provided at 10 mM in 100% DMSO. In the first well, 2 μL of 10 mM compound was added to 78 μL of DMSO (1:40 dilution). In subsequent wells 3-fold dilution (total 10 dilutions) were performed.
1×ATX assay buffer was made up with a final concentration of 1 mg/mL fatty acid free-BSA using 2×ATX assay buffer, 10 mg/ml fatty acid free-BSA and ddH2O.
[…]. The final concentration of ATX in the reaction as 1.0 μg/mL.
2 μL per well of compounds was transferred to provide the desired concentration. The plate was centrifuged, then incubated at room temperature for 30 minutes on the shaker.
FS-3 was diluted with 1×ATX assay buffer to a concentration of FS-3 of 10 μM (5×). Then, 10 μL was added per well to the assay plate. The final concentration of FS-3 in the reaction was 2 μM. The plate was centrifuged. The plate was kept shaking at room temperature for 2 hours. Because FS-3 substrate is light sensitive, plates were kept covered and protected from light.
Fluorescence was measured using SpectraMax M5 (excitation at 485 nm/emission at 538 nm, top read).

| Structure (SMILES) | IC50 |
| --- | --- |
| O=C(O)C1CCC(CC(=O)N2CCc3c(C(F)(F)F)nn(-c4ccccc4)c3C2)CC1 (stereo in doubt) [Example 5-21, cis-4-(2-Oxo-2-(1-phenyl-3-(trifluoromethyl)-4,5-dihydro-1H-pyrazolo[3,4-c]pyridin-6(7H)-yl)ethyl)cyclohexanecarboxylic acid] | > 500 nM and ≤ 10000 nM |
| N#Cc1ccc(Cn2nc(C(F)(F)F)c3c2CN(C(=O)C[C@H]2CC[C@@H](C(=O)O)CC2)CC3)cc1 (stereo in doubt) [Example 5-35, cis-4-(2-(1-(4-Cyanobenzyl)-3-(trifluoromethyl)-4,5-dihydro-1H-pyrazolo[3,4-c]pyridin-6(7H)-yl)-2-oxoethyl)cyclohexanecarboxylic acid] | ≤ 100 nM |
| CCOC(=O)C1CCC(CC(=O)N2CCc3c(C(F)(F)F)nn(Cc4ccc(F)cc4)c3C2)CC1 (centres unmarked) [Example 1-1, Ethyl 4-(2-(1-(4-fluorobenzyl)-3-(trifluoromethyl)-4,5-dihydro-1H-pyrazolo[3,4-c]pyridin-6 (7H)-yl)-2-oxoethyl)cyclohexanecarboxylate] | ≤ 100 nM |
| CN1CCC(CC(=O)N2CCc3c(C(F)(F)F)nn(Cc4ccc(Cl)cc4F)c3C2)CC1 [Example 1-2, 1-(1-(4-Chloro-2-fluorobenzyl)-3-(trifluoromethyl)-4,5-dihydro-1H-pyrazolo[3,4-c]pyridin-6(7H)-yl)-2-(1-methylpiperidin-4-yl)ethanone] | ≤ 100 nM |
| O=C(Cc1ccccc1)N1CCc2c(C(F)(F)F)nn(Cc3ccc(Cl)cc3F)c2C1 [Example 1-3, 1-(1-(4-Chloro-2-fluorobenzyl)-3-(trifluoromethyl)-4,5-dihydro-1H-pyrazolo[3,4-c]pyridin-6(7H)-yl)-2-phenylethanone] | ≤ 100 nM |
| CCOC(=O)C1CCC(CC(=O)N2CCc3cnn(Cc4ccc(Cl)cc4F)c3C2)CC1 (centres unmarked) [Example 1-4, Ethyl 4-(2-(1-(4-chloro-2-fluorobenzyl)-4,5-dihydro-1H-pyrazolo[3,4-c]pyridin-6(7H)-yl)-2-oxoethyl)cyclohexanecarboxylate] | ≤ 100 nM |
| O=C(CC1CCCCC1)N1CCc2c(C(F)(F)F)nn(Cc3ccc(Cl)cc3F)c2C1 [Example 1-5, 1-(1-(4-Chloro-2-fluorobenzyl)-3-(trifluoromethyl)-4,5-dihydro-1H-pyrazolo[3,4-c]pyridin-6(7H)-yl)-2-cyclohexylethanone] | ≤ 100 nM |

Second part, the compound after the results:

| IC50 | Structure (SMILES) |
| --- | --- |
| ≤ 100 nM | O=C(O)C1CCC(CC(=O)N2CCc3c(C(F)(F)F)nn(Cc4cccc(F)c4)c3C2)CC1 (mixture of isomers) [Example 6-1, 4-(2-(1-(3-Fluorobenzyl)-3-(trifluoromethyl)-4,5-dihydro-1H-pyrazolo[3,4-c]pyridin-6(7H)-yl)-2-oxoethyl)cyclohexanecarboxylic acid] |
| ≤ 100 nM | O=C(O)C1CCC(CC(=O)N2CCc3c(C(F)(F)F)nn(Cc4ccc(C(F)(F)F)cc4)c3C2)CC1 (mixture of isomers) [Example 6-2, 4-(2-Oxo-2-(3-(trifluoromethyl)-1-(4-(trifluoromethyl)benzyl)-4,5-dihydro-1H-pyrazolo[3,4-c]pyridin-6(7H)-yl)ethyl)cyclohexanecarboxylic acid] |
| ≤ 100 nM | O=C(O)C1CCC(CC(=O)N2CCc3c(C(F)(F)F)nn(Cc4ccccc4F)c3C2)CC1 (mixture of isomers) [Example 6-3, 4-(2-(1-(2-Fluorobenzyl)-3-(trifluoromethyl)-4,5-dihydro-1H-pyrazolo[3,4-c]pyridin-6(7H)-yl)-2-oxoethyl)cyclohexanecarboxylic acid] |
| ≤ 100 nM | CC1(C(=O)O)CCC(CC(=O)N2CCc3c(C(F)(F)F)nn(Cc4ccc(Cl)cc4F)c3C2)CC1 (mixture of isomers) [Example 6-5, 4-(2-(1-(4-chloro-2-fluorobenzyl)-3-(trifluoromethyl)-4,5-dihydro-1H-pyrazolo[3,4-c]pyridin-6(7H)-yl)-2-oxoethyl)-1-methylcyclohexanecarboxylic acid] |
| ≤ 100 nM | O=C(O)C1CCC(CC(=O)N2CCc3c(C(F)(F)F)nn(Cc4ccc(Cl)cc4F)c3C2)C1 (mixture of isomers) [Example 6-6, 3-(2-(1-(4-Chloro-2-fluorobenzyl)-3-(trifluoromethyl)-4,5-dihydro-1H-pyrazolo[3,4-c]pyridin-6(7H)-yl)-2-oxoethyl)cyclopentanecarboxylic acid] |
| ≤ 100 nM | O=C(O)C1CCC(CC(=O)N2CCc3c(C(F)(F)F)nn(Cc4ccc(F)cc4)c3C2)C1 (mixture of isomers) [Example 6-7, 3-(2-(1-(4-Fluorobenzyl)-3-(trifluoromethyl)-4,5-dihydro-1H-pyrazolo[3,4-c]pyridin-6(7H)-yl)-2-oxoethyl)cyclopentanecarboxylic acid] |
| ≤ 100 nM | O=C(O)C1CC(CC(=O)N2CCc3c(C(F)(F)F)nn(Cc4ccc(Cl)cc4F)c3C2)C1 (mixture of isomers) [Example 6-8, 3-(2-(1-(4-Chloro-2-fluorobenzyl)-3-(trifluoromethyl)-4,5-dihydro-1H-pyrazolo[3,4-c]pyridin-6(7H)-yl)-2-oxoethyl)cyclobutanecarboxylic acid] |
| ≤ 100 nM | O=C(O)C1CC(CC(=O)N2CCc3c(C(F)(F)F)nn(Cc4ccc(F)cc4)c3C2)C1 (mixture of isomers) [Example 6-9, 3-(2-(1-(4-Fluorobenzyl)-3-(trifluoromethyl)-4,5-dihydro-1H-pyrazolo[3,4-c]pyridin-6(7H)-yl)-2-oxoethyl)cyclobutanecarboxylic acid] |
| ≤ 100 nM | O=C(O)C1CC2CCC(C1)C2CC(=O)N1CCc2c(C(F)(F)F)nn(Cc3ccc(Cl)cc3F)c2C1 (mixture of isomers) [Example 6-10, 8-(2-(1-(4-Chloro-2-fluorobenzyl)-3-(trifluoromethyl)-4,5-dihydro-1H-pyrazolo[3,4-c]pyridin-6(7H)-yl)-2-oxoethyl)bicyclo[3.2.1]octane-3-carboxylic acid] |
| ≤ 100 nM | CC1(C)C(CC(=O)N2CCc3c(C(F)(F)F)nn(Cc4ccc(Cl)cc4F)c3C2)CC1C(=O)O (mixture of isomers) [Example 6-14, 3-(2-(1-(4-Chloro-2-fluorobenzyl)-3-(trifluoromethyl)-4,5-dihydro-1H-pyrazolo[3,4-c]pyridin-6(7H)-yl)-2-oxoethyl)-2,2-dimethylcyclobutanecarboxylic acid] |
| ≤ 100 nM | CC1(C)C(CC(=O)N2CCc3c(C(F)(F)F)nn(Cc4ccc(F)cc4)c3C2)CC1C(=O)O (mixture of isomers) [Example 6-15, 3-(2-(1-(4-Fluorobenzyl)-3-(trifluoromethyl)-4,5-dihydro-1H-pyrazolo[3,4-c]pyridin-6(7H)-yl)-2-oxoethyl)-2,2-dimethylcyclobutanecarboxylic acid] |
| ≤ 100 nM | O=C(O)C1CCC(CC(=O)N2CCc3c(C(F)(F)F)nn(CC4CCCCC4)c3C2)CC1 (single isomer, unassigned) [Example 7-13, 4-(2-(1-(cyclohexylmethyl)-3-(trifluoromethyl)-4,5-dihydro-1H-pyrazolo[3,4-c]pyridin-6(7H)-yl)-2-oxoethyl)cyclohexanecarboxylic acid] |
| ≤ 100 nM | O=C(O)C1CCC(CC(=O)N2CCc3cnn(Cc4ccc(F)cc4)c3C2)CC1 (single isomer, unassigned) [Example 7-15, 4-(2-(1-(4-Fluorobenzyl)-4,5-dihydro-1H-pyrazolo[3,4-c]pyridin-6(7H)-yl)-2-oxoethyl)cyclohexanecarboxylic acid] |
